From patent publication US8673856B2 (Anygen Co., Ltd., priority 2006, dated 2014)

Assays:
Sprague-Dawley male rats [1] = conditions: rat, in vivo, iv
[2] = target: T1, human N-type calcium channel (Homo sapiens, UniProt Q00975); format: cell-based
T1 construct: expressed in transfected cells; host or cells: HEK 293 (human embryonic kidney) cells

[3] = target: T1, human N-type calcium channel; format: cell-based; remark: listed apart in the source
Sprague-Dawley male rats [4] = conditions: rat, in vivo
Sprague-Dawley male rats [5] = conditions: rat, in vivo; remark: listed apart in the source
ICR mice [6] = conditions: mouse, in vivo
ICR mice [7] = conditions: mouse, in vivo; remark: listed apart in the source
ICR mice [8] = conditions: mouse, in vivo, ip
ICR mice [9] = conditions: mouse, in vivo; remark: listed apart in the source
ICR mice [10] = conditions: mouse, in vivo; remark: listed apart in the source
ICR mice [11] = conditions: mouse, in vivo; remark: listed apart in the source
Sprague-Dawley male rats [12] = conditions: rat, in vivo; remark: listed apart in the source

T1 sequence (Q00975 whole entry, looked up): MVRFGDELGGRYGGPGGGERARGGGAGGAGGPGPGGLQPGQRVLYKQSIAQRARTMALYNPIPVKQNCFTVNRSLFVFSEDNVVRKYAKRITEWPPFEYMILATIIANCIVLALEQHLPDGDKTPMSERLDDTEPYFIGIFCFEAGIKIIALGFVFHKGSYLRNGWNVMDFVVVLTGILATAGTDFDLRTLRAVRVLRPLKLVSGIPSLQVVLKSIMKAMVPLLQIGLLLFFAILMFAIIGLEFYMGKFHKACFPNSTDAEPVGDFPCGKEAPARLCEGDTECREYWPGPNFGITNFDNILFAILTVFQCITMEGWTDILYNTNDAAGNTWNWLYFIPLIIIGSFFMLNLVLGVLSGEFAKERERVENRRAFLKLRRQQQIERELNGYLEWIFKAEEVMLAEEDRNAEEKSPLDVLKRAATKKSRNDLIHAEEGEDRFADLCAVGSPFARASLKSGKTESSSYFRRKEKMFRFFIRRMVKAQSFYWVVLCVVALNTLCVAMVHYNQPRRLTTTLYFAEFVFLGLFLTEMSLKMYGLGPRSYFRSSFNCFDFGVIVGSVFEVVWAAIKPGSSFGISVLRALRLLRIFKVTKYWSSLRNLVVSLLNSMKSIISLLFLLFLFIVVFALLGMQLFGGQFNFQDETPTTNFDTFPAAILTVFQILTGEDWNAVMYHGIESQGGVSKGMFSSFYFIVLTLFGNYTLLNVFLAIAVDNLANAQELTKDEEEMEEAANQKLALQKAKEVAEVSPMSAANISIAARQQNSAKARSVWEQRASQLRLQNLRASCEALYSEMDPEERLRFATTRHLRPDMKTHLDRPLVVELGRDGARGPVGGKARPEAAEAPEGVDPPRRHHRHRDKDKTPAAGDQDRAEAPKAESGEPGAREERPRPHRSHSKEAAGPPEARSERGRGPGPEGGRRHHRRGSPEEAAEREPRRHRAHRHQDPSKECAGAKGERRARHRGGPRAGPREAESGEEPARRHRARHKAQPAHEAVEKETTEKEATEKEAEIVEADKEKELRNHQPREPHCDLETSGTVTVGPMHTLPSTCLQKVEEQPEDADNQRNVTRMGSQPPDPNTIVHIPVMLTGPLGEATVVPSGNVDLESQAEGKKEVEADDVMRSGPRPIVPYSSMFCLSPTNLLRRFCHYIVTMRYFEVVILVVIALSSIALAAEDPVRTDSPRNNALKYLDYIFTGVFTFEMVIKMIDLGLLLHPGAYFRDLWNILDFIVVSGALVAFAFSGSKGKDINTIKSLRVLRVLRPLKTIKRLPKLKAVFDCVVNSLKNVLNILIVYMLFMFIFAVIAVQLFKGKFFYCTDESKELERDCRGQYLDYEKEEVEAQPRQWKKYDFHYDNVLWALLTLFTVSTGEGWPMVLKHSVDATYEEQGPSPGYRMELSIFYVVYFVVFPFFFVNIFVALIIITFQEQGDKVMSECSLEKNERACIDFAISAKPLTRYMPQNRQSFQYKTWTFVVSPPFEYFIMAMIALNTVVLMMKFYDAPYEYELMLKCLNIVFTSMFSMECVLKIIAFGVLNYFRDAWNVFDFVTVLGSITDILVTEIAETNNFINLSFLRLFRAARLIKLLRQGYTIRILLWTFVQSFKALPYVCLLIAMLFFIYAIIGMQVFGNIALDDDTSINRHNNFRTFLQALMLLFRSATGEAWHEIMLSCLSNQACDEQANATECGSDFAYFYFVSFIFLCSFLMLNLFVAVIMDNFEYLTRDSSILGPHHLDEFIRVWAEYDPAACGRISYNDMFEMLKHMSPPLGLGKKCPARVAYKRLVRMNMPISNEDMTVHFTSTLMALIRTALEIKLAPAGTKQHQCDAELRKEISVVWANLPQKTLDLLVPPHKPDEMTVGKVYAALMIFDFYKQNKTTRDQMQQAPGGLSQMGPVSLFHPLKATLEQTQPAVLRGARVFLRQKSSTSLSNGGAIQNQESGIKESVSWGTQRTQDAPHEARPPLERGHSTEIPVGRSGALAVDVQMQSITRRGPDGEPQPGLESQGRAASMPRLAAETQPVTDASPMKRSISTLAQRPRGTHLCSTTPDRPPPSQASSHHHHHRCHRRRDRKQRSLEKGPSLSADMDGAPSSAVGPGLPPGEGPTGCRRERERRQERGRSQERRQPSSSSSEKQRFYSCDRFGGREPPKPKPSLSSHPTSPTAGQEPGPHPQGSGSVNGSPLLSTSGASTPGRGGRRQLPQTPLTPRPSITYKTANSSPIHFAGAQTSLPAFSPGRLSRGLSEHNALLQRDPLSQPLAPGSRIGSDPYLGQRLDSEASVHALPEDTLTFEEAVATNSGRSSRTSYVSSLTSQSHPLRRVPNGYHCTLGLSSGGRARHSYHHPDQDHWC

Molecule | Arterial pressure after lapse of time (Sprague-Dawley male rats [1]) | Mean arterial pressure (MAP) time course (Sprague-Dawley male rats [1]) | Calcium channel blocking activity [2] | Recovery relative to MVIIA [3] | Analgesic effect on cold allodynia (Sprague-Dawley male rats [4]) | 50% withdrawal threshold, mechanical allodynia (Sprague-Dawley male rats [5]) | Cumulative pain response, glutamate-induced (ICR mice [6]) | Withdrawal latency, plantar test (ICR mice [7]) | Count of writhing responses (ICR mice [8]) | Cumulative pain response, formalin test (ICR mice [9]) | Dose dependence of analgesic effect, formalin test (ICR mice [9]) | Pain behaviors in the second phase, formalin test (ICR mice [9]) | Cumulative pain response, substance P-induced (ICR mice [10]) | Current-voltage curve [2] | IC50 ([2]; read-out: IC50 from dose-inhibition curve) | Withdrawal latency, tail-flick test (ICR mice [11]) | Dissociation on washout [3] | Analgesic effect on warm allodynia (Sprague-Dawley male rats [12])
CSCC[C@@H]1NC(=O)[C@H](CC(C)C)NC(=O)[C@H](CCCNC(=N)N)NC(=O)[C@H](CO)NC(=O)[C@@H]2CSSC[C@@H]3NC(=O)[C@H](CO)NC(=O)CNC(=O)[C@H]([C@@H](C)O)NC(=O)[C@H](CSSC[C@H](N)C(=O)N[C@@H](CCCCN)C(=O)NCC(=O)N[C@@H](CCCCN)C(=O)NCC(=O)N[C@@H](C)C(=O)N[C@@H](CCCCN)C(=O)N2)NC(=O)[C@H](CSSC[C@@H](C(N)=O)NC(=O)[C@H](CCCCN)NC(=O)CNC(=O)[C@H](CO)NC(=O)[C@H](CCCNC(=N)N)NC3=O)NC(=O)[C@H](CC(=O)O)NC(=O)[C@H](Cc2ccc(O)cc2)NC1=O [MVIIA, CKGKGAKCSRLMYDCCTGSCRSGKC-NH2] | around 60 mmHg | sharp decrease in MAP at an initial stage and slow recovery in MAP | – | – | – | – | – | – | – | – | – | – | – | – | – | – | – | –
CKGKGAKCSRIAYNCCTGSCRSGKC-NH2 [Chimera-MFMM] | – | – | significant calcium channel blocking activity | ~2 fold | – | – | – | – | – | – | – | – | – | – | – | – | – | –
CC[C@H](C)[C@@H]1NC(=O)[C@H](CCCNC(=N)N)NC(=O)[C@H](CO)NC(=O)[C@@H]2CSSC[C@@H]3NC(=O)[C@H](CO)NC(=O)CNC(=O)[C@H]([C@@H](C)O)NC(=O)[C@H](CSSC[C@H](N)C(=O)N[C@@H](CCCCN)C(=O)NCC(=O)N[C@@H]([C@@H](C)O)C(=O)NCC(=O)N[C@@H](CCCCN)C(=O)N[C@@H](CO)C(=O)N2)NC(=O)[C@H](CSSC[C@@H](C(N)=O)NC(=O)[C@H](CCCCN)NC(=O)CNC(=O)[C@H](CO)NC(=O)[C@H](CCCNC(=N)N)NC3=O)NC(=O)[C@H](CC(N)=O)NC(=O)[C@H](Cc2ccc(O)cc2)NC(=O)[C@H](C)NC1=O [FVIA, CKGTGKSCSRIAYNCCTGSCRSGKC-NH2] | – | much better recovery in MAP | – | – | exhibits analgesic effects on cold and warm allodynia | elevate 50% withdrawal threshold in a dose dependent manner | significantly decreased cumulative pain response rate | not effective in increasing withdrawal latency | significantly decreased | significantly decreased cumulative pain response rate in both the first phase and the second phase | analgesic effect in a dose-dependent manner | completely prevented pain behaviors in the second phase | significantly decreased cumulative pain response rate | curve inhibition without the horizontal curve shift | 11.5 ± 1.4 nM | not effective in increasing withdrawal latency | better dissociation comparing MVIIA washout | exhibits analgesic effects on cold and warm allodynia
